Consider two molecules from patent publication US9670261B2 (Sanofi, priority 2012, dated 2017).

For one data set, the target named is T1, human GLP-1 receptor (Homo sapiens, UniProt P43220).
T1 construct: expressed in transfected cells
Description: cAMP response (HTRF) of HEK-293 cells stably expressing human GLP-1 receptor. In kind it is cell-based. Conditions: Table 7; cAMP formation; read-out: EC50 hGLP-1 R. An outline of the steps:
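Cells grown overnight in DMEM/10% FBS, detached with accutase, resuspended in HBSS with 20 mM HEPES, 0.1% BSA and 2 mM IBMX at 400000 cells/ml. Test compound added and incubated 30 minutes at room temperature; cellular cAMP then measured by HTRF.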
(In general: TR-FRET usually uses a lanthanide donor and a delayed reading to cut background.)

Data set [1] concerns non-fasted female diabetic dbdb-mice. Description: Glucose lowering in non-fasted female diabetic dbdb-mice. The data set is classed as in vivo. Conditions: 3 μg/kg s.c., at 240 min; baseline 20-22 mmol/l. The text has this: Female diabetic dbdb-mice of mean non-fasted glucose value of 20-22 mmol/l and a body weight of 42 g+/−0.6 g (SEM) were used. Mice were individually marked and were adapted to housing conditions for at least one week.
3-5 days prior to study start mice were assigned to groups and cages (4 mice per cage, 8 per group) according to their non-fasted glucose values to ensure even distribution of lower and higher values between groups (stratification). On the study day, mice were weighed and dosed (t=0). Immediately prior to compound administration feed was removed while water remained available, and a first blood sample at a tail incision was drawn (baseline). Further blood samples were drawn at the tail incision at 30, 60, 90, 120, 240, 360, and 480 min.
Statistical analyses are performed with Everstat Version 6.0 based on SAS by 2-way-ANOVA on repeated measures, followed by Dunnett's post-hoc test against vehicle-control. Differences are considered statistically significant at the p<0.05 level.
Female dbdb-mice, received 3 μg/kg of SEQ ID NO: 14, SEQ ID NO: 21 or phosphate buffered saline (vehicle control) subcutaneously, at time 0 min.

Data set [2] can be described thus: Pharmacokinetic testing in mice, s.c. To be noted: mouse, plasma, sc, 1 mg/kg.
Description: Mice were dosed 1 mg/kg subcutaneously (s.c.). The mice were sacrified and blood samples were collected after 0.25, 0.5, 1, 2, 4, 8, 16 and 24 hours post application. Plasma samples were analyzed after protein precipitation via liquid chromatography mass spectrometry (LC/MS). PK parameters and half-life were calculated using WinonLin Version 5.2.1 (non-compartment model).
Data set [3] in a line: Solubility testing in buffer (HPLC-UV). To be noted: buffer.
A short description of data set [4]: Chemical stability in solution, 7 days at 25° C. (% remaining peptide). Conditions: % remaining peptide after 7 days at 25° C.
Description: After that time course, the sample was centrifuged for 20 min at 4000 rpm and the supernatant was analysed with HPLC-UV. For determination of the amount of the remaining peptide, the peak areas of the target compound at t0 and t7 were compared, resulting in “% remaining peptide”, following the equation % remaining peptide=[(peak area peptide t7)×100]/peak area peptide t0.
The chemical stability is expressed as “% remaining peptide”.
The test system of data set [5] is female diabetic dbdb-mice. Put plainly: Glucose, HbA1c and oral glucose tolerance in diabetic dbdb-mice, chronic treatment (method 4). The data set is classed as in vivo. On the procedure:
8 week old, female diabetic dbdb-mice of mean non-fasted glucose value of 14.5 mmol/l and a body weight of 37-40 g were used. Mice were individually marked and were adapted to housing conditions for at least one week.
7 days prior to study start, baseline values for non-fasted glucose and HbA1c were determined, 5 days prior to study start, mice were assigned to groups and cages (5 mice per cage, 10 per group) according to their HbA1c values to ensure even distribution of lower and higher values between groups (stratification).
Mice were treated for 4 weeks, by once daily subcutaneous administration 3 hours prior to the dark phase (6 pm to 6 am). Blood samples from a tail tip incision were obtained for HbA1c on study day 21 and oral glucose tolerance was assessed in the 4th week. Oral glucose tolerance test was done in the morning without prior extra compound administration to majorly assess the effect of chronic treatment and less of acute compound administration. Mice were fasted for 4 hours prior to oral glucose administration (2 g/kg, t=0 min). Blood samples were drawn prior to glucose administration and at 15, 30, 60, 90, 120, and 180 min thereafter. Feed was returned after the last blood sampling. Results are represented as change from baseline, glucose in mmol/l and HbA1c in %.
Statistical analyses are performed with Everstat Version 6.0 based on SAS by 1-way-ANOVA, followed by Dunnett's post-hoc test against vehicle-control. Differences are considered statistically significant at the p<0.05 level.
Female dbdb-mice, received 3 and 10 μg/kg of SEQ ID NO: 16 and 10 μg/kg of SEQ ID NO: 21 or phosphate buffered saline (vehicle control) once daily, subcutaneously over four weeks.

*1 amine or outer side, *2 acyl side, *3 side chain or, on linkers, in order; H or OH if unused. Where a SMILES comes first, the peptide text is derived from it. Side-chain parts run from the residue outwards. [ ]: non-standard residue; d: D form. The star is where a group is joined. γGlu = O=C(O)[C@H](CCC(=O)[*:2])N[*:1]; Stearoyl = CCCCCCCCCCCCCCCCCC(=O)*; Aib = CC(C)(N)C(=O)O

T1 sequence (P43220 24-463): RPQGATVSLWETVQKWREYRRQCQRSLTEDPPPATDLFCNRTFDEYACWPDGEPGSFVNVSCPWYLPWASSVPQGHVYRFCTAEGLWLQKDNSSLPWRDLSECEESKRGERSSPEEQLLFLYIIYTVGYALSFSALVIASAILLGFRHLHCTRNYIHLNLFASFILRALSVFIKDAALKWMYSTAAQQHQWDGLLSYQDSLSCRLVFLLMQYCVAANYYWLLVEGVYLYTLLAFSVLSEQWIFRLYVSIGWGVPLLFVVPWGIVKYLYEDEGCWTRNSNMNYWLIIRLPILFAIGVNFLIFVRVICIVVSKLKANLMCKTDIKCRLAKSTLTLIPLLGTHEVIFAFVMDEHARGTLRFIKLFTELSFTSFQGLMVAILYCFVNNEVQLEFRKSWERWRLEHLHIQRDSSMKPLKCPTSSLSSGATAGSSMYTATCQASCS

As to `CCCCCCCCCCCCCCCCCC(=O)N[C@@H](CCC(=O)NCCCC[C@H](NC(=O)[C@H](CCC(N)=O)NC(=O)[C@@H](NC(=O)[C@H](CO)NC(=O)[C@H](CC(C)C)NC(=O)[C@H](CC(=O)O)NC(=O)[C@H](CO)NC(=O)[C@@H](NC(=O)[C@H](Cc1ccccc1)NC(=O)[C@@H](NC(=O)CNC(=O)[C@H](CCC(=O)O)NC(=O)C(C)(C)NC(=O)[C@@H](N)Cc1ccc(O)cc1)[C@@H](C)O)[C@@H](C)O)[C@@H](C)CC)C(=O)N[C@@H](CCC(=O)O)C(=O)N[C@@H](CCCCN)C(=O)N[C@@H](CCCNC(=N)N)C(=O)N[C@@H](C)C(=O)N[C@@H](C)C(=O)N[C@@H](CCC(N)=O)C(=O)N[C@@H](CCC(=O)O)C(=O)N[C@@H](Cc1ccccc1)C(=O)N[C@H](C(=O)N[C@@H](CCC(=O)O)C(=O)N[C@@H](Cc1c[nH]c2ccccc12)C(=O)N[C@@H](CC(C)C)C(=O)N[C@@H](CCCCN)C(=O)N[C@@H](C)C(=O)NCC(=O)NCC(=O)N1CCC[C@H]1C(=O)N[C@@H](CO)C(=O)N[C@@H](CO)C(=O)NCC(=O)N[C@@H](C)C(=O)N1CCC[C@H]1C(=O)N1CCC[C@H]1C(=O)N1CCC[C@H]1C(=O)N[C@@H](CO)C(N)=O)[C@@H](C)CC)C(=O)O` [SEQ ID NO: 14, Y-Aib-E-G-T-F-T-S-D-L-S-I-Q-K(γE-x70)-EKRAAQEFIEWLKAGGPSSGAPPPS-NH2] (H-Y[Aib]EGTFTSDLSIQK([γGlu-Stearoyl])EKRAAQEFIEWLKAGGPSSGAPPPS-NH2), on human GLP-1 receptor, the EC50 was determined as 4.3 pM. Also, the “maximal effect on glucose, change from baseline” value in data set [1] is -8 mmol/L. In data set [2], the Cmax turned out to be 5340 ng/mL and the half-life was 2.8 h. In data set [3] (pH 4.5), the solubility at 2 h is over 1000 µg/mL. This molecule also gave a solubility at 2 h in data set [3] (pH 7.4) of over 1000 µg/mL. The “Stability (pH 4.5)” value in data set [4] (pH 4.5) was found to be 96.0%. Besides, the “Stability (pH 7.4)” value in data set [4] (pH 7.4) was 94.0%.

With `CCCCCCCCCCCCCCCCCC(=O)N[C@@H](CCC(=O)N[C@@H](CCC(=O)NCCCC[C@H](NC(=O)[C@H](CCC(N)=O)NC(=O)[C@@H](NC(=O)[C@H](CO)NC(=O)[C@H](CC(C)C)NC(=O)[C@H](CC(=O)O)NC(=O)[C@H](CO)NC(=O)[C@@H](NC(=O)[C@H](Cc1ccccc1)NC(=O)[C@@H](NC(=O)CNC(=O)[C@H](CCC(=O)O)NC(=O)C(C)(C)NC(=O)[C@@H](N)Cc1ccc(O)cc1)[C@@H](C)O)[C@@H](C)O)[C@@H](C)CC)C(=O)N[C@@H](CCC(=O)O)C(=O)N[C@@H](CCCCN)C(=O)N[C@@H](CCCNC(=N)N)C(=O)N[C@@H](C)C(=O)N[C@@H](C)C(=O)NC(C)(C)C(=O)N[C@@H](CCC(=O)O)C(=O)N[C@@H](Cc1ccccc1)C(=O)N[C@H](C(=O)N[C@@H](CCC(=O)O)C(=O)N[C@@H](Cc1c[nH]c2ccccc12)C(=O)N[C@@H](CC(C)C)C(=O)N[C@@H](CCCCN)C(=O)N[C@@H](CC(N)=O)C(=O)N[C@H](C(=O)NCC(=O)N1CCC[C@H]1C(=O)N[C@@H](CO)C(=O)N[C@@H](CO)C(=O)NCC(=O)N[C@@H](C)C(=O)N1CCC[C@H]1C(=O)N1CCC[C@H]1C(=O)N1CCC[C@H]1C(=O)N[C@@H](CO)C(N)=O)[C@@H](C)O)[C@@H](C)CC)C(=O)O)C(=O)O` [SEQ ID NO: 16, Y-Aib-E-G-T-F-T-S-D-L-S-I-Q-K(γE-γE-x70)-E-K-R-A-A-Aib-E-F-I-E-W-L-K-N-T-G-P-S-S-G-A-P-P-P-S-NH2] (H-Y[Aib]EGTFTSDLSIQK([γGlu-γGlu-Stearoyl])EKRAA[Aib]EFIEWLKNTGPSSGAPPPS-NH2), at human GLP-1 receptor, the 50% effective concentration (EC50) is 4 pM. Moreover, the oral glucose tolerance result in data set [5] (once daily s.c., oral glucose 2 g/kg in the 4th week) was “improved oral glucose tolerance”. The “reduction of AUC under the glucose curve compared to vehicle control” value in data set [5] (oral glucose tolerance test, p<0.05) is given as “reached statistical significance”. In data set [2], this molecule had a maximum concentration (Cmax) of 3460 ng/mL and a half-life of 5.3 h.

What is called EC50 is the concentration giving half of the maximal effect. The term Cmax denotes the highest concentration seen after dosing. The term half-life denotes the time in which the quantity being followed falls by half. Usually solubility stands for the concentration that dissolves in the medium under given conditions. A low value points to a poorly soluble substance.
